Source: the supplement of paper PMC11061612

Key:
Test in all cases: combination Emax (second highest fraction inhibited in the dose matrix, 72 h); higher = more inhibition; extreme values may be limits of the assay
[1] = tested on: CAL-39 (Other Solid Carcinomas)
Procedure, shortened: (§1)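 Bliss excess equals the observed combination effect minus the expected value EA + EB − EA·EB, where EA and EB are the effects of each agent alone. Combination Emax is the second-highest inhibition within the matrix. Inhibition was scaled from CellTiter-Glo 2.0 luminescence, with 0 set by vehicle wells and 1 by blank wells, after 72 hours of two-drug dosing of cells plated in 1536-well plates.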

[2] = tested on: SLVL (B-Cell Non-Hodgkin's Lymphoma)
Procedure, shortened: as §1

HCC38 (Breast Carcinoma) = tested on: HCC38 (Breast Carcinoma)
Procedure, shortened: as §1

EW-22 (Ewing's Sarcoma) = tested on: EW-22 (Ewing's Sarcoma)
Procedure, shortened: as §1

[3] = tested on: PA-TU-8902 (Pancreatic Carcinoma)
Procedure, shortened: as §1

[4] = tested on: DOK (Oral Cavity Carcinoma)
Procedure, shortened: as §1

[5] = tested on: HLE (Hepatocellular Carcinoma)
Procedure, shortened: as §1

[6] = tested on: RCC10RGB (Kidney Carcinoma)
Procedure, shortened: as §1

SK-MEL-1 (Melanoma) = tested on: SK-MEL-1 (Melanoma)
Procedure, shortened: as §1

[7] = tested on: NOMO-1 (Acute Myeloid Leukemia)
Procedure, shortened: as §1

[8] = tested on: D-283MED (Other Solid Carcinomas)
Procedure, shortened: as §1

MSTO-211H (Mesothelioma) = tested on: MSTO-211H (Mesothelioma)
Procedure, shortened: as §1

[9] = tested on: HCT-116 (Colorectal Carcinoma)
Procedure, shortened: as §1

[10] = tested on: EFM-192A (Breast Carcinoma)
Procedure, shortened: as §1

[11] = tested on: U-118-MG (Low Grade Glioma)
Procedure, shortened: as §1

[12] = tested on: SW948 (Colorectal Carcinoma)
Procedure, shortened: as §1

[13] = tested on: WSU-DLCL2 (B-Cell Non-Hodgkin's Lymphoma)
Procedure, shortened: as §1

[14] = tested on: ETK-1 (Biliary Tract Carcinoma)
Procedure, shortened: as §1

[15] = tested on: 647-V (Bladder Carcinoma)
Procedure, shortened: as §1

H4 (Low Grade Glioma) = tested on: H4 (Low Grade Glioma)
Procedure, shortened: as §1

SMILES | combination Emax [1] | combination Emax [2] | combination Emax (HCC38 (Breast Carcinoma)) | combination Emax (EW-22 (Ewing's Sarcoma)) | combination Emax [3] | combination Emax [4] | combination Emax [5] | combination Emax [6] | combination Emax (SK-MEL-1 (Melanoma)) | combination Emax [7] | combination Emax [8] | combination Emax (MSTO-211H (Mesothelioma)) | combination Emax [9] | combination Emax [10] | combination Emax [11] | combination Emax [12] | combination Emax [13] | combination Emax [14] | combination Emax [15] | combination Emax (H4 (Low Grade Glioma))
C[C@@H](c1ccc2nccn2c1)n1nnc2ncc(-c3cnn(C)c3)nc21 [Savolitinib] + CC1(C)CCC(CN2CCN(c3ccc(C(=O)NS(=O)(=O)c4ccc(NCC5CCOCC5)c([N+](=O)[O-])c4)c(Oc4cnc5[nH]ccc5c4)c3)CC2)=C(c2ccc(Cl)cc2)C1 [Venetoclax] (first compound max 1 µM, 7x7, partner max 1 µM) | 0.157 | 0.406 | 0.158 | 0.173 | 0.168 | 0.116 | 0.155 | 0.195 | 0.158 | 0.395 | 0.126 | 0.114 | 0.114 | 0.174 | 0.218 | 0.166 | 0.304 | 0.0864 | 0.0716 | 0.218
C[C@@H](c1ccc2nccn2c1)n1nnc2ncc(-c3cnn(C)c3)nc21 [Savolitinib] + Cc1c2c(nn1C)CSCc1cc(n(C)n1)CSc1cc(c3ccccc3c1)OCCCc1c(C(=O)O)n(C)c3c-2c(Cl)ccc13 [AZD5991] (first compound max 1 µM, 7x7, partner max 1 µM) | 0.264 | 0.374 | 0.207 | 0.271 | 0.184 | 0.372 | 0.164 | 0.289 | 0.0746 | 0.864 | 0.725 | 0.123 | 0.162 | 0.587 | 0.258 | 0.215 | 0.985 | 0.141 | 0.233 | 0.298
Cn1cnc2c(F)c(Nc3ccc(Br)cc3Cl)c(C(=O)NOCCO)cc21 [Selumetinib] + C=CCn1c(=O)c2cnc(Nc3ccc(N4CCN(C)CC4)cc3)nc2n1-c1cccc(C(C)(C)O)n1 [AZD1775] (first compound max 10 µM, partner max 1 µM) | 0.726 | 0.797 | 0.377 | 0.573 | 0.571 | 0.618 | 0.345 | 0.591 | 0.896 | 0.999 | 0.956 | 0.442 | 0.785 | 0.248 | 0.327 | 0.79 | 0.961 | 0.384 | 0.651 | 0.739
Cn1cnc2c(F)c(Nc3ccc(Br)cc3Cl)c(C(=O)NOCCO)cc21 [Selumetinib] + CC(C)n1c(=O)n(C)c2cnc3cc(F)c(-c4ccc(OCCCN5CCCCC5)nc4)cc3c21 [AZD1390] (first compound max 10 µM, 7x7, partner max 0.3 µM) | 0.643 | 0.448 | 0.116 | 0.128 | 0.307 | 0.416 | 0.122 | 0.437 | 0.838 | 0.767 | 0.148 | 0.162 | 0.664 | 0.103 | 0.178 | 0.698 | 0.14 | 0.122 | 0.154 | 0.13
Cn1cnc2c(F)c(Nc3ccc(Br)cc3Cl)c(C(=O)NOCCO)cc21 [Selumetinib] + CCN(CCO)CCCOc1ccc2c(Nc3cc(CC(=O)Nc4cccc(F)c4)[nH]n3)ncnc2c1 [AZD2811] (first compound max 10 µM, 7x7, partner max 1 µM) | 0.72 | 0.639 | 0.133 | 0.695 | 0.445 | 0.633 | 0.235 | 0.505 | 0.863 | 0.988 | 0.476 | 0.318 | 0.792 | 0.167 | 0.287 | 0.785 | 0.127 | 0.158 | 0.394 | 0.306
Cn1cnc2c(F)c(Nc3ccc(Br)cc3Cl)c(C(=O)NOCCO)cc21 [Selumetinib] + C[C@@H]1COCCN1C2=NC(=NC(=C2)C3(CC3)[S@](=N)(=O)C)C4=C5C=CNC5=NC=C4 [AZD6738] (first compound max 10 µM, 7x7, partner max 10 µM) | 0.697 | 0.671 | 0.373 | 0.855 | 0.357 | 0.51 | 0.404 | 0.513 | 0.922 | 0.994 | 0.988 | 0.396 | 0.8 | 0.135 | 0.479 | 0.732 | 0.762 | 0.587 | 0.757 | 0.672
CC(=O)Nc1cccc(-n2c(=O)n(C3CC3)c(=O)c3c(Nc4ccc(I)cc4F)n(C)c(=O)c(C)c32)c1 [Trametinib] + Cc1nc(-c2cn3c(n2)-c2ccc(-c4cnn(C(C)(C)C(N)=O)c4)cc2OCC3)n(C(C)C)n1 [Taselisib] (first compound max 1 µM, 7x7, partner max 10 µM) | 1 | 0.478 | 0.364 | 0.722 | 0.724 | 0.998 | 0.401 | 0.69 | 0.942 | 0.98 | 0.576 | 0.854 | 1 | 0.72 | 0.757 | 0.994 | 0.936 | 0.86 | 0.456 | 0.795
CC1(C)CCC(CN2CCN(c3ccc(C(=O)NS(=O)(=O)c4ccc(NCC5CCOCC5)c([N+](=O)[O-])c4)c(Oc4cnc5[nH]ccc5c4)c3)CC2)=C(c2ccc(Cl)cc2)C1 [Venetoclax] + C1CN(CCC1(C(=O)N[C@@H](CCO)C2=CC=C(C=C2)Cl)N)C3=NC=NC4=C3C=CN4 [Capivasertib] (first compound max 1 µM, 7x7, partner max 3 µM) | 0.279 | 0.786 | 0.244 | 0.905 | 0.162 | 0.331 | 0.181 | 0.197 | 0.208 | 0.919 | 0.582 | 0.251 | 0.309 | 0.379 | 0.4 | 0.646 | 1 | 0.331 | 0.218 | 0.473
CC1(C)CCC(CN2CCN(c3ccc(C(=O)NS(=O)(=O)c4ccc(NCC5CCOCC5)c([N+](=O)[O-])c4)c(Oc4cnc5[nH]ccc5c4)c3)CC2)=C(c2ccc(Cl)cc2)C1 [Venetoclax] + C=CCn1c(=O)c2cnc(Nc3ccc(N4CCN(C)CC4)cc3)nc2n1-c1cccc(C(C)(C)O)n1 [AZD1775] (first compound max 1 µM, partner max 1 µM) | 0.36 | 0.978 | 0.573 | 0.924 | 0.286 | 0.333 | 0.749 | 0.572 | 0.411 | 0.99 | 0.979 | 0.592 | 0.579 | 0.327 | 0.357 | 0.773 | 0.995 | 0.497 | 0.612 | 0.85
CC1(C)CCC(CN2CCN(c3ccc(C(=O)NS(=O)(=O)c4ccc(NCC5CCOCC5)c([N+](=O)[O-])c4)c(Oc4cnc5[nH]ccc5c4)c3)CC2)=C(c2ccc(Cl)cc2)C1 [Venetoclax] + CCN(CCO)CCCOc1ccc2c(Nc3cc(CC(=O)Nc4cccc(F)c4)[nH]n3)ncnc2c1 [AZD2811] (first compound max 1 µM, 7x7, partner max 1 µM) | 0.285 | 0.901 | 0.253 | 0.924 | 0.192 | 0.313 | 0.416 | 0.212 | 0.292 | 0.905 | 0.778 | 0.394 | 0.456 | 0.212 | 0.357 | 0.799 | 0.758 | 0.259 | 0.245 | 0.583
CC1(C)CCC(CN2CCN(c3ccc(C(=O)NS(=O)(=O)c4ccc(NCC5CCOCC5)c([N+](=O)[O-])c4)c(Oc4cnc5[nH]ccc5c4)c3)CC2)=C(c2ccc(Cl)cc2)C1 [Venetoclax] + CN(C)CCCOc1ccc(-c2ccc3ncc4c(c3c2)n(C2CCOCC2)c(=O)n4C)cn1 [AZD0156] (first compound max 1 µM, 7x7, partner max 1 µM) | 0.21 | 0.848 | 0.193 | 0.866 | 0.209 | 0.2 | 0.171 | 0.174 | 0.231 | 0.912 | 0.706 | 0.123 | 0.196 | 0.25 | 0.217 | 0.409 | 0.33 | 0.202 | 0.196 | 0.232
CC1(C)CCC(CN2CCN(c3ccc(C(=O)NS(=O)(=O)c4ccc(NCC5CCOCC5)c([N+](=O)[O-])c4)c(Oc4cnc5[nH]ccc5c4)c3)CC2)=C(c2ccc(Cl)cc2)C1 [Venetoclax] + COc1cc(Nc2ncc3c(n2)-c2ccc(Cl)cc2C(c2c(F)cccc2OC)=NC3)ccc1C(=O)O [Alisertib] (first compound max 1 µM, 7x7, partner max 10 µM) | 0.704 | 0.932 | 0.179 | 0.919 | 0.394 | 0.646 | 0.598 | 0.568 | 0.351 | 0.884 | 0.85 | 0.734 | 0.581 | 0.167 | 0.527 | 0.926 | 0.995 | 0.453 | 0.317 | 0.814
